Results: paper PMC8119466, “A screen of FDA-approved drugs identifies inhibitors of protein tyrosine phosphatase 4A3 (PTP4A3 or PRL-3)” (Scientific Reports, 2021)
Read-outs that look alike come from different tables or passages of the source.

Tests used:
SW480 cells [1] = assay: Click-IT Edu cell proliferation assay, SW480; format: cell-based, human; settings: 100 µM Salirasib or 25 µM Candesartan, 24 and 48 hr
Experimental: The cell proliferation assay was performed using the Click-IT Edu cell proliferation kit from (Thermo Fisher, Cat # C10419) according to the manufacturer’s protocol. Briefly, HEK293T, HCT116 and SW480 cells were plated in 6 well dishes at 4 × 10^5 cell seeding density and treated with DMSO, Candesartan and Salirasib at the indicated concentrations. Edu was added 2 h prior to collecting the cells at 24 h and 48 h time points and the assay was performed according to the instructions from the manual. Flow cytometry with AlexaFluor647 conjugated azide dye was used to determine the cellular proliferation and DAPI was used for the DNA content.

PP2A = assay: PhosphataseProfiler (Eurofins) selectivity panel; format: biochemical; settings: 25µM
Experimental: (§1) In 384 well plates, 2.5 μM recombinant PRL-1, PRL-2, or PRL-3 was combined with DiFUMP (Life Technologies, Cat # E12020) at the KM of each protein in reaction buffer (20 mM Tris–Cl, pH 7.5, 150 mM NaCl, 10 mM DTT) as previously reported. Briefly, protein was diluted in reaction buffer and allowed to incubate at 4 °C for 20 min to allow for full reduction of the active site. DiFMUP, drug, and protein were added, and plates were incubated for 20 min at room temperature. Fluorescence intensities were measured on a Cytation 5 plate reader (Biotek) at an EX:360 nm and EM:460 nm. Data were normalized to vehicle control and IC50 values were calculated on GraphPad Prism version 8. Inhibition selectivity for PRLs over a panel of other phosphatases was determined using PhosphataseProfiler (Eurofins, Cat # PP260).

PTPMEG = target: T1, PTPMEG (Homo sapiens, UniProt P29074); assay: PhosphataseProfiler (Eurofins) selectivity panel; format: biochemical; settings: 25µM
T1 construct: purchased Eurofins PP260
T1 sequence (P29074 whole entry): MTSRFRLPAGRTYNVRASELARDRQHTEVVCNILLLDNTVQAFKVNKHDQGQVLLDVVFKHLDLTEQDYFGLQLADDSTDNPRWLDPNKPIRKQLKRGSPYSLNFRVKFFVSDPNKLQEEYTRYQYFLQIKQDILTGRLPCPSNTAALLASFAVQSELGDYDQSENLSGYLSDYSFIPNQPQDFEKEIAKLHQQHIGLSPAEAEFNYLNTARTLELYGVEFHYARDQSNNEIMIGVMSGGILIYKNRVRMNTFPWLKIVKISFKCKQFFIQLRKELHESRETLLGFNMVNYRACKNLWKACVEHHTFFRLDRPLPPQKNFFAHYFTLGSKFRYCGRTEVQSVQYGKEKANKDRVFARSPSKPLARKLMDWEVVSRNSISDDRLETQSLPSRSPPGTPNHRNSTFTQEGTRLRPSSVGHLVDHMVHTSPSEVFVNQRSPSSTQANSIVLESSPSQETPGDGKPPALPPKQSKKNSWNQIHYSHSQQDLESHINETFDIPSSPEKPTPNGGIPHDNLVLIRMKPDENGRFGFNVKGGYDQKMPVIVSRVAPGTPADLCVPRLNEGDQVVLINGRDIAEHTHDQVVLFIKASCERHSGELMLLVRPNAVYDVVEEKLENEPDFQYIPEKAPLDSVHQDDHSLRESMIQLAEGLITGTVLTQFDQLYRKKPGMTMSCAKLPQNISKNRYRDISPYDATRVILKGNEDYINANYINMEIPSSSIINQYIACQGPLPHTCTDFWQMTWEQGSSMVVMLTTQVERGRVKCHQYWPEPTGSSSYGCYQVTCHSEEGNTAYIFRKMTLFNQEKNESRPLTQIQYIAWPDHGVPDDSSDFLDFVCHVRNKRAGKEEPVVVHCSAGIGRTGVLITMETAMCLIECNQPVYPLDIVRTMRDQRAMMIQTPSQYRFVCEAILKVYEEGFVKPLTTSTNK
Experimental: as §1

CD45 = target: T2, CD45 (Homo sapiens, UniProt P08575); assay: PhosphataseProfiler (Eurofins) selectivity panel; format: biochemical; settings: CD45, 25µM
T2 construct: purchased Eurofins PP260
T2 sequence (P08575 26-1306): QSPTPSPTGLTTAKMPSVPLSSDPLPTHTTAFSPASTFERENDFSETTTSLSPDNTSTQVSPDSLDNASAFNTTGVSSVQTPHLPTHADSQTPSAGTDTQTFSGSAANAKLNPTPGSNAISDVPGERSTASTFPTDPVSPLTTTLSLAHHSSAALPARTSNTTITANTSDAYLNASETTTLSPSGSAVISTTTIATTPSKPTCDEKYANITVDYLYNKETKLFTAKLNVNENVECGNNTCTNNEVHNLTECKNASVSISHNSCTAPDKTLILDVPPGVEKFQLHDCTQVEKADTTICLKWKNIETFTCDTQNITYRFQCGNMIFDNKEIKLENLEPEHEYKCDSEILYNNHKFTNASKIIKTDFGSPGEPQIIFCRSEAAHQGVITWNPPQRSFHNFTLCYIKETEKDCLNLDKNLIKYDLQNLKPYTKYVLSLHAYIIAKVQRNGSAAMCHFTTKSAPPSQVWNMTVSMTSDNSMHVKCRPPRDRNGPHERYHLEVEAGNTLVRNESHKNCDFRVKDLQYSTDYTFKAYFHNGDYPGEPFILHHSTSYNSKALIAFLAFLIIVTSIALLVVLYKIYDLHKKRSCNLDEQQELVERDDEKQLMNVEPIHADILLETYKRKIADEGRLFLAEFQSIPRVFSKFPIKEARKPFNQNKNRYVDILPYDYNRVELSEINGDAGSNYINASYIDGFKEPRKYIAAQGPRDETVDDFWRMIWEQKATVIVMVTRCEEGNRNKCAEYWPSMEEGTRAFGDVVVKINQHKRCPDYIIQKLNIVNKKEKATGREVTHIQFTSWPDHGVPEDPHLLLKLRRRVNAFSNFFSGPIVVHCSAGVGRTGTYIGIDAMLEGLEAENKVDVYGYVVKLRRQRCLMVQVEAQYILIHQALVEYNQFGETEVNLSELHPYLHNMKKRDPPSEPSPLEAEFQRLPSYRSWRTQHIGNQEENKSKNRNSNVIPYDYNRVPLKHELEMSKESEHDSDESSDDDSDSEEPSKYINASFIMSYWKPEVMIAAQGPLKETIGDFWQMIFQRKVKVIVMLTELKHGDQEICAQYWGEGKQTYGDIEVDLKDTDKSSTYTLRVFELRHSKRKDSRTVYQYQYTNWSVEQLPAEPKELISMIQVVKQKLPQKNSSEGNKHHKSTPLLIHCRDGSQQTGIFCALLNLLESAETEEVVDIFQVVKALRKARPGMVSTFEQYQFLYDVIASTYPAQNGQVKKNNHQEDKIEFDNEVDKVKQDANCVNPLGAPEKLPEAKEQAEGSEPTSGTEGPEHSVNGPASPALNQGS
Experimental: as §1

Lambda PP = target: T3, Lambda PP (Escherichia phage lambda, UniProt P03772); assay: PhosphataseProfiler (Eurofins) selectivity panel; format: biochemical; settings: 25µM
T3 construct: purchased Eurofins PP260
T3 sequence (P03772 whole entry): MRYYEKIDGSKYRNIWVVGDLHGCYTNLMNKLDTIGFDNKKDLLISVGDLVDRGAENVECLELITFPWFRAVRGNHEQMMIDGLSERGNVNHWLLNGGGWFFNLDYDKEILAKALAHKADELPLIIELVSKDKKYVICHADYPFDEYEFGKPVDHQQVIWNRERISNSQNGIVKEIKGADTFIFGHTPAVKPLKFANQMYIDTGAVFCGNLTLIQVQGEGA
Experimental: as §1

PTPMEG2 = target: T4, PTPMEG2 (Homo sapiens, UniProt P43378); assay: PhosphataseProfiler (Eurofins) selectivity panel; format: biochemical; settings: PTPMEG2, 25µM
T4 construct: purchased Eurofins PP260
Experimental: as §1

Yoph = target: T5, Yoph (Yersinia enterocolitica, UniProt P15273); assay: PhosphataseProfiler (Eurofins) selectivity panel; format: biochemical; settings: 25µM
T5 construct: purchased Eurofins PP260
Experimental: as §1

PTPN22 = target: T6, PTPN22 (Homo sapiens, UniProt Q9Y2R2); assay: PhosphataseProfiler (Eurofins) selectivity panel; format: biochemical; settings: PTPN22, 25µM
T6 construct: purchased Eurofins PP260
T6 sequence (Q9Y2R2 whole entry): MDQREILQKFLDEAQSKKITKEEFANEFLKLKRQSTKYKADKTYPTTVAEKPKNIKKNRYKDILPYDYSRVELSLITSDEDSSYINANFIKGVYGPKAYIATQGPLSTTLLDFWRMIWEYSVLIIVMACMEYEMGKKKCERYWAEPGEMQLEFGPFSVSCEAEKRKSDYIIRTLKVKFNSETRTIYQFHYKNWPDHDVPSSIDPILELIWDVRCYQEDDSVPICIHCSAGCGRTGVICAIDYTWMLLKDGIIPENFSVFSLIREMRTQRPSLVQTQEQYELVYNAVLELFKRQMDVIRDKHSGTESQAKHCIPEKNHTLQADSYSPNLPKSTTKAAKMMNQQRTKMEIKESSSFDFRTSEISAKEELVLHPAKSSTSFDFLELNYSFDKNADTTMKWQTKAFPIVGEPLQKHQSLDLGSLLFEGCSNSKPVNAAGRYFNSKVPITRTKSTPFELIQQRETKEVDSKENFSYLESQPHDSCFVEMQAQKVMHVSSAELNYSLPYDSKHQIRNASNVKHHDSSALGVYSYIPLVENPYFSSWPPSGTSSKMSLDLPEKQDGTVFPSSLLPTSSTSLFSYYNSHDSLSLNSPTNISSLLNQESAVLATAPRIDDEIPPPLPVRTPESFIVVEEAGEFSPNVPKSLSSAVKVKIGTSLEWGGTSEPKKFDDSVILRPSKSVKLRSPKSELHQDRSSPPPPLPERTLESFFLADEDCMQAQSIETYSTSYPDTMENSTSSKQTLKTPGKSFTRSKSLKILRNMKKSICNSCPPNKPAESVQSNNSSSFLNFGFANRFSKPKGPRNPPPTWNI

HCT116 cells = assay: Annexin V staining, HCT116; format: cell-based, human; settings: HCT-116; 100 µM Salirasib or 25 µM Candesartan; 24 and 48 hr
Experimental: (§2) HEK293T, HCT116, and SW480 cells were plated in 6 well dishes at 4 × 10^5 cell seeding density and treated with DMSO, Candesartan and Salirasib at the indicated concentrations. Cells were collected at 24 h and 48 h time points and the AnnexinV staining was performed according to the instructions from the manual (Thermo Fisher, Cat # 00-0055-56). Flow cytometry with AnnexinV-FITC conjugated antibody (Thermo Fisher, Cat # A13199) was used to determine the population of cells incorporating Annexin V and PI was used for the DNA content.

PTPbeta = target: T7, PTPbeta (Homo sapiens, UniProt P23467); assay: PhosphataseProfiler (Eurofins) selectivity panel; format: biochemical; settings: 25µM
T7 construct: purchased Eurofins PP260

PTPRM = target: T8, PTPRM (Homo sapiens, UniProt P28827); assay: PhosphataseProfiler (Eurofins) selectivity panel; format: biochemical; settings: 25µM
T8 construct: purchased Eurofins PP260
T8 sequence (P28827 21-1452): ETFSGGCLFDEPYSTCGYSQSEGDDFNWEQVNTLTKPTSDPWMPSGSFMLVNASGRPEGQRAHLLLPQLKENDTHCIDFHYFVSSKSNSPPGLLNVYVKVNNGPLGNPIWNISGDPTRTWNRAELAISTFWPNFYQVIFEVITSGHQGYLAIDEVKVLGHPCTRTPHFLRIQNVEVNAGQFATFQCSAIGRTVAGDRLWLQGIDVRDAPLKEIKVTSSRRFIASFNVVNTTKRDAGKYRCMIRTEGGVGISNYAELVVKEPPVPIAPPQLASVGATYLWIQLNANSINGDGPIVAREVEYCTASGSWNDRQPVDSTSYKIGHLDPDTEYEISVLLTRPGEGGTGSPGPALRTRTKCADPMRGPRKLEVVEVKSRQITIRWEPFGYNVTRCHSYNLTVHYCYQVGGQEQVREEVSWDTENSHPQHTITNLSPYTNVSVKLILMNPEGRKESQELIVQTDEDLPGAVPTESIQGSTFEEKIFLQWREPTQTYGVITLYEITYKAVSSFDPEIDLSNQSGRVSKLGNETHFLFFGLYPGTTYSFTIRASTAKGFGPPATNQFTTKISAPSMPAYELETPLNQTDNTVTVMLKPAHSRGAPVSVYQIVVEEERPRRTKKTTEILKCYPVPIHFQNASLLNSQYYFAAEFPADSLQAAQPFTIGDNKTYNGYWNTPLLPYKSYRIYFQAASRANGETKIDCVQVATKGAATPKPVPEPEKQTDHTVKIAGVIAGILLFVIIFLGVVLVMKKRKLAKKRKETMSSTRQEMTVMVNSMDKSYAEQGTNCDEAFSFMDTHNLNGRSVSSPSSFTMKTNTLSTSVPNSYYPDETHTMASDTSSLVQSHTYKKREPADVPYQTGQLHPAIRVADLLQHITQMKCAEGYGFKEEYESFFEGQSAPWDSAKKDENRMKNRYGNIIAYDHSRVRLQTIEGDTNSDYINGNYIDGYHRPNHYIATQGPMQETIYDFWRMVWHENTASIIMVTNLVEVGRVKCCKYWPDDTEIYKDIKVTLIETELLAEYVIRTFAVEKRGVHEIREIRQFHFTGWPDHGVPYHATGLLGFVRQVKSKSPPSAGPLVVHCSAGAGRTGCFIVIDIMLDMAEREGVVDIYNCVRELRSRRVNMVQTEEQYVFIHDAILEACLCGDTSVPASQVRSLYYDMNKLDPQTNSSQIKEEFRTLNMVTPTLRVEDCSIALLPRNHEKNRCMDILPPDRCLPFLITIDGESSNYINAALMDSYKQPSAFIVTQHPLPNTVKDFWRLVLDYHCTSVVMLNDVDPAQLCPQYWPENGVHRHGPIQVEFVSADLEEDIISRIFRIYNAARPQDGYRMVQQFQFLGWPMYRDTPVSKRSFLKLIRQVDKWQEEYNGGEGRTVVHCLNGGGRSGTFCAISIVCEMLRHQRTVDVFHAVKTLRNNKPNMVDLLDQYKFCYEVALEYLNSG

SW480 cells [2] = assay: Scratch (migration) assay, SW480; format: cell-based, human; settings: 24 h, 100 µM Salirasib or 25 µM Candesartan, vs DMSO
Experimental: Cells were seeded into duplicate wells of a 48 well plates at a density of 2 × 10^5 cells per well for HEK293T or 4 × 10^5 for HCT116 and SW480. Cells were recovered overnight and were scratched using a p20 pipette tip the following day. Compounds were added at the concentrations indicated. Images were obtained immediately after the scratch and after a 24 h incubation with the drug on an Evos FL inverted microscope (ThermoFisher). The area within the scratch was calculated using ImageJ. The area migrated was measured as the difference in wound area at 0 h and 24 h and the percent change in migration was calculated by dividing the difference in wound area of treatment by the difference in wound area of the control.

SW480 cells [3] = assay: Annexin V staining, SW480; format: cell-based, human; settings: 100 µM Salirasib or 25 µM Candesartan, 24 and 48 hr
Experimental: as §2

HEK293T cells = assay: Annexin V staining, HEK293T; format: cell-based, human; settings: 100 µM Salirasib or 25 µM Candesartan, 24 and 48 hr
Experimental: as §2

ACP1 (LMPTP-B) = target: T9, ACP1 (LMPTP-B) (Homo sapiens, UniProt P24666); assay: PhosphataseProfiler (Eurofins) selectivity panel; format: biochemical; settings: 25µM
T9 construct: purchased Eurofins PP260
T9 sequence (P24666 1-158 isoform P24666-2): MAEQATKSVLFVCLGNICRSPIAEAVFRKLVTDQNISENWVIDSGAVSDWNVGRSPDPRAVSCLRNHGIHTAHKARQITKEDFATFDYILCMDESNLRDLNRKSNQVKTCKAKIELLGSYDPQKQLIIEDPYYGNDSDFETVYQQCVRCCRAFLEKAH
Experimental: Briefly, protein was diluted in reaction buffer and allowed to incubate at 4 °C for 20 min to allow for full reduction of the active site. DiFMUP, drug, and protein were added, and plates were incubated for 20 min at room temperature. Fluorescence intensities were measured on a Cytation 5 plate reader (Biotek) at an EX:360 nm and EM:460 nm. […] Inhibition selectivity for PRLs over a panel of other phosphatases was determined using PhosphataseProfiler (Eurofins, Cat # PP260).

recombinant PRL-3 = target: T10, recombinant PRL-3 (Homo sapiens, UniProt O75365); assay: In vitro phosphatase assay (DiFMUP hydrolysis), PRL-3; format: biochemical; settings: for % Phosphatase Activity (compared to DMSO) PRL-3: FDA-approved drug screen; for IC50: DiFMUP at KM, read-out: Calculated IC50, PRL-3 phosphatase activity; for mode of inhibition (Lineweaver-Burke analysis): versus DiFMUP substrate, reduce apparent Vmax, do not affect KM
T10 construct: 6xHis (N, cleaved yes); made in house; host or cells: E. coli One Shot BL21 Star
T10 sequence (O75365 whole entry): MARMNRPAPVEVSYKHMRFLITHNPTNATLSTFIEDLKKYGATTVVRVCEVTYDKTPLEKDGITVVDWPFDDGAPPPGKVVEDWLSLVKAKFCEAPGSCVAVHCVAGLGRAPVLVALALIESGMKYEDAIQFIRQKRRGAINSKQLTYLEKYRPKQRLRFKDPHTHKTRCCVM

SMILES	cell cycle (EdU staining) (SW480 cells [1])	Percent Phosphatase Activity (compared to DMSO) (PP2A) [%]	Percent Phosphatase Activity (compared to DMSO) (PTPMEG) [%]	Percent Phosphatase Activity (compared to DMSO) (CD45) [%]	Percent Phosphatase Activity (compared to DMSO) (Lambda PP) [%]	Percent Phosphatase Activity (compared to DMSO) (PTPMEG2) [%]	Percent Phosphatase Activity (compared to DMSO) (PTPN22) [%]	Percent Phosphatase Activity (compared to DMSO) (PTPbeta) [%]	Percent Phosphatase Activity (compared to DMSO) (PTPRM) [%]	Percent Phosphatase Activity (compared to DMSO) (ACP1 (LMPTP-B)) [%]	mode of inhibition (Lineweaver-Burke analysis) (recombinant PRL-3)	also measured
CCOc1nc2cccc(C(=O)O)c2n1Cc1ccc(-c2ccccc2-c2nnn[nH]2)cc1 [Candesartan]	did not significantly impact	110	109	100	107	97	136	85	107	113	non-competitive inhibitors	Percent Phosphatase Activity (compared to DMSO) (Yoph): 112%; apoptosis (AnnexinV plus propidium iodide) (HCT116 cells): did not significantly impact; inhibition of migration of SW480 cells (SW480 cells [2]): > 30%; apoptosis (AnnexinV plus propidium iodide) (SW480 cells [3]): did not significantly impact; apoptosis (AnnexinV plus propidium iodide) (HEK293T cells): did not significantly impact; % Phosphatase Activity (compared to DMSO) PRL-3 (recombinant PRL-3): 82%; % Phosphatase Activity (compared to DMSO) PRL-3 (recombinant PRL-3; listed as Candesartan Cilexetil): -3.55%; IC50 (recombinant PRL-3; […] protein): 28 ± 4 µM
CC(C)=CCC/C(C)=C/CC/C(C)=C/CSc1ccccc1C(=O)O [Salirasib]	did not significantly impact	107	107	102	112	102	129	91	111	106	non-competitive inhibitors	inhibition at 100 µM (SW480 cells [2]; Homo sapiens, SW480): > 30%; IC50 (recombinant PRL-3; 2.5 µM protein): 27 ± 3 µM
